Earlier results on one compound are cited in patent publication US20140316796A1, “SYSTEMS, METHODS, AND COMPUTER-READABLE MEDIA FOR LIMITED DISTRIBUTION OF SPECIALTY DRUG USING A COMPUTER HUB OPERATING AT A SINGLE ACCESS POINT” (Jazz Pharmaceuticals, priority 2013, published 2014).

For data set [1] the following is noted: pH 4.
For data set [2] the following is noted: in vivo.

`CSCC[C@@H]1NC(=O)[C@H](CC(C)C)NC(=O)[C@H](CCCNC(=N)N)NC(=O)[C@H](CO)NC(=O)[C@@H]2CSSC[C@@H]3NC(=O)[C@H](CO)NC(=O)CNC(=O)[C@H]([C@@H](C)O)NC(=O)[C@H](CSSC[C@H](N)C(=O)N[C@@H](CCCCN)C(=O)NCC(=O)N[C@@H](CCCCN)C(=O)NCC(=O)N[C@@H](C)C(=O)N[C@@H](CCCCN)C(=O)N2)NC(=O)[C@H](CSSC[C@@H](C(N)=O)NC(=O)[C@H](CCCCN)NC(=O)CNC(=O)[C@H](CO)NC(=O)[C@H](CCCNC(=N)N)NC3=O)NC(=O)[C@H](CC(=O)O)NC(=O)[C@H](Cc2ccc(O)cc2)NC1=O` [ziconotide]: in data set [1], the “stabilisation by methionine-containing buffer” value was “effective in stabilizing ziconotide”. Also, in data set [2], the addiction potential result is listed as “does not have addiction potential”, the development of tolerance entry was “tolerance does not appear to develop” and the “effect on respiratory function” value is given as “does not suppress respiratory function”.
